Reference: ChEMBL document CHEMBL1201862, “PubChem BioAssay data set” (2004)
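Tested at 5 concentrations; 48 h exposure; 96-well plates; endpoints linearly interpolated, else capped at highest concentration. Here, GI50 denotes the concentration required for 50% inhibition of growth.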 Active and inactive are the calls of the source. No stated cut-off is given here; in the data, active = GI50 up to about 1.1 µM and inactive = higher.

Legend:
Assay in all cases: DTP human tumour cell line panel, 48 h
HCT-15 = system: HCT-15
PC-3 = system: PC-3
TK-10 = system: TK-10
SK-OV-3 = system: SK-OV-3
MDA-MB-231 = system: MDA-MB-231
CCRF-CEM = system: CCRF-CEM
Malme-3M = system: Malme-3M
RPMI-8226 = system: RPMI-8226
MDA-MB-435 = system: MDA-MB-435
SF-268 = system: SF-268
LOX IMVI = system: LOX IMVI
UACC-62 = system: UACC-62
U-251 = system: U-251
NCI-H23 = system: NCI-H23
BT-549 = system: BT-549
NCI-H226 = system: NCI-H226
OVCAR-3 = system: OVCAR-3
786-0 = system: 786-0
SK-MEL-5 = system: SK-MEL-5
RXF 393 = system: RXF 393

Structure (SMILES)	GI50 (HCT-15) [µM]	GI50 (PC-3)	GI50 (TK-10)	GI50 (SK-OV-3)	GI50 (MDA-MB-231)	GI50 (CCRF-CEM)	GI50 (Malme-3M)	GI50 (RPMI-8226)	GI50 (MDA-MB-435)	GI50 (SF-268)	GI50 (LOX IMVI)	GI50 (UACC-62)	GI50 (U-251)	GI50 (NCI-H23)	GI50 (BT-549)	GI50 (NCI-H226)	GI50 (OVCAR-3)	GI50 (786-0)	GI50 (SK-MEL-5)	GI50 (RXF 393)
COc1ccc(C(=O)NCCN(C)C)c2nc3ccccc3cc12	1.35	1.38 µM (inactive)	1.72 µM (inactive)	1.56 µM (inactive)	2.12 µM (inactive)	0.208 µM (active)	0.841 µM (active)	0.354 µM (active)	1.85 µM (inactive)	1.58 µM (inactive)	0.279 µM (active)	0.729 µM (active)	0.64 µM (active)	0.366 µM (active)	3.18 µM (inactive)	0.785 µM (active)	2 µM (inactive)	0.305 µM (active)	1.23 µM (inactive)	2.15 µM (inactive)
CN(Cc1c[n+]([O-])c2nc(N)nc(N)c2n1)c1ccc(C(=O)NC23CC4CC(CC(C4)C2)C3)cc1	> 100	89.7 µM (inactive)	> 100 µM (inactive)	> 100 µM (inactive)	98.9 µM (inactive)	28.6 µM (inactive)	78.2 µM (inactive)	93.1 µM (inactive)	77.4 µM (inactive)	26.3 µM (inactive)	> 100 µM (inactive)	> 100 µM (inactive)	34.5 µM (inactive)	> 100 µM (inactive)	28.2 µM (inactive)	> 100 µM (inactive)	> 100 µM (inactive)	> 100 µM (inactive)	34.7 µM (inactive)	31.2 µM (inactive)
Cc1ccc(S(=O)(=O)N2CC2CCCCC=O)cc1 (stereo not given)	> 100	> 100 µM (inactive)	> 100 µM (inactive)	> 100 µM (inactive)	> 100 µM (inactive)	21.6 µM (inactive)	> 100 µM (inactive)	37.8 µM (inactive)	> 100 µM (inactive)	> 100 µM (inactive)	20.1 µM (inactive)	50.7 µM (inactive)	27.4 µM (inactive)	> 100 µM (inactive)	> 100 µM (inactive)	> 100 µM (inactive)	> 100 µM (inactive)	40.6 µM (inactive)	54.2 µM (inactive)	> 100 µM (inactive)
O=c1nc(N2CCN(c3ccccc3)CC2)ccn1C1OC(CO)C(O)C1O (stereo not given)	> 100	74.5 µM (inactive)	> 100 µM (inactive)	> 100 µM (inactive)	> 100 µM (inactive)	35.6 µM (inactive)	> 100 µM (inactive)	36.9 µM (inactive)	32.2 µM (inactive)	> 100 µM (inactive)	94.2 µM (inactive)	59.7 µM (inactive)	52.2 µM (inactive)	55.3 µM (inactive)	53.2 µM (inactive)	> 100 µM (inactive)	56.4 µM (inactive)	86.3 µM (inactive)	42.6 µM (inactive)	> 100 µM (inactive)
Clc1ccc(OCC2NC3C=CC32)cn1 (stereo not given)	> 100	> 100 µM (inactive)	> 100 µM (inactive)	> 100 µM (inactive)	> 100 µM (inactive)	56.9 µM (inactive)	> 100 µM (inactive)	34.4 µM (inactive)	> 100 µM (inactive)	> 100 µM (inactive)	> 100 µM (inactive)	> 100 µM (inactive)	> 100 µM (inactive)	> 100 µM (inactive)	> 100 µM (inactive)	> 100 µM (inactive)	> 100 µM (inactive)	> 100 µM (inactive)	> 100 µM (inactive)	> 100 µM (inactive)
O=S(=O)(O)c1cc(S(=O)(=O)O)c2c(/N=N/c3ccc(S(=O)(=O)O)c4ccccc34)c(O)ccc2c1	> 100	> 100 µM (inactive)	> 100 µM (inactive)	> 100 µM (inactive)	> 100 µM (inactive)	> 100 µM (inactive)	21.9 µM (inactive)	> 100 µM (inactive)	> 100 µM (inactive)	> 100 µM (inactive)	> 100 µM (inactive)	> 100 µM (inactive)	> 100 µM (inactive)	> 100 µM (inactive)	> 100 µM (inactive)	> 100 µM (inactive)	> 100 µM (inactive)	> 100 µM (inactive)	> 100 µM (inactive)	> 100 µM (inactive)
NNS(=O)(=O)c1cc(C(=O)O)cc(C(=O)O)c1	> 100	> 100 µM (inactive)	> 100 µM (inactive)	> 100 µM (inactive)	> 100 µM (inactive)	28.5 µM (inactive)	> 100 µM (inactive)	> 100 µM (inactive)	> 100 µM (inactive)	> 100 µM (inactive)	> 100 µM (inactive)	> 100 µM (inactive)	> 100 µM (inactive)	> 100 µM (inactive)	> 100 µM (inactive)	> 100 µM (inactive)	> 100 µM (inactive)	> 100 µM (inactive)	> 100 µM (inactive)	> 100 µM (inactive)
CNc1cccnc1/C=N/N=C(/N)S	2.78	1.69 µM (inactive)	8.65 µM (inactive)	4.49 µM (inactive)	6.38 µM (inactive)	0.363 µM (active)	1.95 µM (inactive)	> 4.59 µM (inactive)	2.41 µM (inactive)	0.612 µM (active)	2.02 µM (inactive)	0.379 µM (active)	1.87 µM (inactive)	0.403 µM (active)	1.71 µM (inactive)	2.75 µM (inactive)	2.17 µM (inactive)	0.38 µM (active)	3.2 µM (inactive)	1.15 µM (inactive)
